Reference: patent publication US20240002437A1, “COMPOSITIONS AND METHODS OF TREATING INFLAMMATORY LUNG DISEASES” (priority 2020, published 2024)

What was measured:
[1] = system: PAEC; test: Mitochondrial membrane potential (TMRM) in PAEC; assay type: cell-based, ovine; conditions: 4αPDD 10 μM, 3 h
Method: Primary cultures of ovine pulmonary arterial endothelial cells (PAEC) were isolated as described previously (L. K. Kelly, Am J Physiol Lung Cell Mol Physiol, 286(5), L984-91 (2004)). Briefly, cells were maintained in Dulbecco's modified Eagle medium (DMEM) supplemented with 10% fetal calf serum (Hyclone, Logan, UT), antibiotics/antimycotic (500 IU Penicillin, 500 μg/ml Streptomycin, 1.25 μg/ml Amphotericin B; MediaTech, Herndon, VA) at 37° C. in a humidified atmosphere with 5% CO2 and 95% air. Cells were used for experiments between passages 9-14, seeded at ˜50% confluence, and utilized when fully confluent.
Mitochondrial membrane potential was determined using TMRM (tetramethylrhodamine methyl ester perchlorate, Molecular Probes, Eugene, OR). Briefly, after each experiment, cells were washed with fresh media, incubated in media containing TMRM (50 nM), for 30 min at 37° C. in dark conditions, then subjected to fluorescence microscopy using an excitation of 548 nm and an emission at 575 nm. An Olympus IX51 microscope equipped with a CCD camera (Hamamatsu Photonics) was used for acquisition of fluorescent images and the average fluorescent intensities were quantified using ImagePro Plus version 5.0 imaging software (Media Cybernetics).

[2] = molecular target: T1, purified eNOS protein (Homo sapiens, UniProt P29474); test: In vitro peptide binding assay (biotinylated d-peptide, streptavidin capture, blot); conditions: biotinylated d-peptide 0 to 5 μg, 1 hour room temperature
T1 sequence (P29474 1-1203): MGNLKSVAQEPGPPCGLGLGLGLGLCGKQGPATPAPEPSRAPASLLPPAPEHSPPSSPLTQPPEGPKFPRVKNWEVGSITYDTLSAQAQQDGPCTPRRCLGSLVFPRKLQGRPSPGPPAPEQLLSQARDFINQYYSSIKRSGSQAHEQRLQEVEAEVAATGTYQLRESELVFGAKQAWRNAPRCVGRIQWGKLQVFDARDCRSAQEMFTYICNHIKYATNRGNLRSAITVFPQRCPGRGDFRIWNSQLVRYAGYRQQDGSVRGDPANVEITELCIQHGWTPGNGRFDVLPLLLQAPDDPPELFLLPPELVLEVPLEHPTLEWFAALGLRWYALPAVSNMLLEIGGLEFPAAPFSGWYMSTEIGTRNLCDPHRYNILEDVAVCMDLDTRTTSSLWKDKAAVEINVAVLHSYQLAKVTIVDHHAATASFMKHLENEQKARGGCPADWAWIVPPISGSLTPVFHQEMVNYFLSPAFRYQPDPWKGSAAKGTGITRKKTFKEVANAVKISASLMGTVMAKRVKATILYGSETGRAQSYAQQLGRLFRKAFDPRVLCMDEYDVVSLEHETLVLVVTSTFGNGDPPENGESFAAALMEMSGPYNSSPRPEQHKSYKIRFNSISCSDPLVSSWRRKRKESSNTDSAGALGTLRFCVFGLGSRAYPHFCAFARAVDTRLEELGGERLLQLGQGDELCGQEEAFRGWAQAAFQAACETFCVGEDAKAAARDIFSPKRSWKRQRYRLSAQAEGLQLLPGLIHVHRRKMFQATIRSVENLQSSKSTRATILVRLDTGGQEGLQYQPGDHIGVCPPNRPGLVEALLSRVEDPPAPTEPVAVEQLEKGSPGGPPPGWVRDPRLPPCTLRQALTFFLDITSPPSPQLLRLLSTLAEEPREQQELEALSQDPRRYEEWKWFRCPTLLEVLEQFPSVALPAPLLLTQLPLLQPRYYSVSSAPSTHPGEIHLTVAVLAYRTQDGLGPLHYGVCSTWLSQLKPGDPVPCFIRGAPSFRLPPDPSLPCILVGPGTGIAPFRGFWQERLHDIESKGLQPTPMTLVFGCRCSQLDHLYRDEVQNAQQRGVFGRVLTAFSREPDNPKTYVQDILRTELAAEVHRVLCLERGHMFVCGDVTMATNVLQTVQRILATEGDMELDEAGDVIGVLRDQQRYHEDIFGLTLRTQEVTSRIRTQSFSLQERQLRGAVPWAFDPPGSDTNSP
Method: Biotinylation of the decoy peptide (d-peptide) was performed using the Thermo Scientific EZ-Link Sulfo-NHS-LC-Biotinylation Kit. Briefly, Sulfo-NHS-LC-Biotin was mixed with d-peptide and the reaction mix was incubated at room temperature for 30 minutes. Different concentrations of the biotinylated d-peptide (0 to 5 μg) mixed with either purified eNOS protein or PKCα protein in a reaction mix containing PKC lipid activator were incubated at room temperature for 1 hour. Protein bound to the biotinylated d-peptide was captured using Thermo Scientific streptavidin agarose column and run on a 10% SDS-PAGE gel under reducing condition. The resulting blots were probed with antibodies to eNOS and PKCα protein respectively. Reactive bands were visualized using chemiluminescence on the LI-COR Odyssey image station.

Molecule | mitochondrial membrane potential (TMRM) [1] | binding to eNOS [2]
CCCCCCCCCC(=O)O[C@@H]1[C@@H](C)[C@@]2(O)[C@@H](C=C(CO)C[C@@]3(O)C(=O)C(C)=C[C@@H]23)[C@@H]2C(C)(C)[C@]12OC(=O)CCCCCCCCC [4αPDD, 4α-Phorbol-12,13 didecanoate] | decrease in the mitochondrial membrane potential | 
HRKKRRQRRITRKKTFKEVA [d-peptide] |  | but not to eNOS
